“And” between values parts separate entries of the source, which are not always exact repeats. Equal values may be shown once. Toxic doses and inconclusive results are not listed. Rule as the data show it: active = T/C of 150% or more; inactive = T/C below 125%.
Tested on: L1210 leukemia ip in BDF1 mice, survival T/C
Test: NCI In Vivo Anticancer Drug Screen. Data for tumor model L1210 Leukemia (intraperitoneal) in B6D2F1 (BDF1) mice
Conditions: endpoint: mean survival time, higher = longer survival
In short: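 Mice bearing the transplanted tumor received compound or vehicle. Survival of the treated group was divided by that of the vehicle-treated control group to give the ratio.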

[1] = dose: 50.0 mg/kg/injection, schedule: Q01DX001 (ip), vehicle: saline
[2] = dose: 100.0 mg/kg/injection, schedule: Q01DX001 (ip), vehicle: saline
[3] = dose: 200.0 mg/kg/injection, schedule: Q01DX001 (ip), vehicle: saline
[4] = dose: 400.0 mg/kg/injection, schedule: Q01DX001 (ip), vehicle: saline
[5] = dose: 100.0 mg/kg/injection, schedule: Q01DX009 (ip), vehicle: saline with Tween-80
[6] = dose: 100.0 mg/kg/injection, schedule: Q04DX003 (ip), vehicle: saline with Tween-80
[7] = dose: 200.0 mg/kg/injection, schedule: Q01DX009 (ip), vehicle: saline with Tween-80
[8] = dose: 200.0 mg/kg/injection, schedule: Q04DX003 (ip), vehicle: saline with Tween-80
[9] = dose: 400.0 mg/kg/injection, schedule: Q01DX009 (ip), vehicle: saline with Tween-80
[10] = dose: 400.0 mg/kg/injection, schedule: Q04DX003 (ip), vehicle: saline with Tween-80
[11] = dose: 100.0 mg/kg/injection, schedule: Q04DX003 (ip), vehicle: saline
[12] = dose: 200.0 mg/kg/injection, schedule: Q04DX003 (ip), vehicle: saline
[13] = dose: 100.0 mg/kg/injection, schedule: Q04DX002 (ip), vehicle: Klucel (hydroxypropylcellulose) (HPC)
[14] = dose: 200.0 mg/kg/injection, schedule: Q04DX002 (ip), vehicle: Klucel (hydroxypropylcellulose) (HPC)
[15] = dose: 400.0 mg/kg/injection, schedule: Q04DX002 (ip), vehicle: Klucel (hydroxypropylcellulose) (HPC)
[16] = dose: 100.0 mg/kg/injection, schedule: Q01DX009 (ip), vehicle: Klucel (hydroxypropylcellulose) (HPC)
[17] = dose: 200.0 mg/kg/injection, schedule: Q01DX009 (ip), vehicle: Klucel (hydroxypropylcellulose) (HPC)
[18] = dose: 400.0 mg/kg/injection, schedule: Q01DX009 (ip), vehicle: Klucel (hydroxypropylcellulose) (HPC)

Measured: T/C

Sc1ccccc1-n1c(-c2ccccc2)ccc1-c1ccccc1
inactive: [1] 96 % of control | [2] 93 % of control | [3] 98 % of control | [4] 87 % of control

CCCCCCc1ccccc1
inactive: [5] 98 % of control | [6] 105 % of control | [7] 98 % of control | [8] 94 % of control | [9] 88 % of control | [10] 95 % of control

COc1cc(Nc2ccc(O)c(CN3CCCCC3)c2)c2ncccc2c1
inactive: dose: 75.0 mg/kg/injection, schedule: Q01DX001 (ip), vehicle: other 98 % of control | dose: 150.0 mg/kg/injection, schedule: Q01DX001 (ip), vehicle: other 98 % of control | dose: 300.0 mg/kg/injection, schedule: Q01DX001 (ip), vehicle: other 91 % of control

O=C(CCCC(=O)N/N=C/c1ccc2c(c1)OCO2)N/N=C\c1ccc2c(c1)OCO2
inactive: [1] 103 % of control | [2] 103 % of control | [3] 106 % of control | [4] 100 % of control

Nc1nc(N)nc(C(=O)Cc2ccccc2)n1
inactive: dose: 50.0 mg/kg/injection, schedule: Q01DX009 (ip), vehicle: saline with Tween-80 108 % of control | [5] 101 % of control | [7] 94 % of control

CCCCC(CC)(CCC)CCN (configuration not stated)
inactive: dose: 5.0 mg/kg/injection, schedule: Q01DX001 (ip), vehicle: carboxymethylcellulose (CMC) 100 % of control | dose: 10.0 mg/kg/injection, schedule: Q01DX001 (ip), vehicle: carboxymethylcellulose (CMC) 110 % of control | dose: 20.0 mg/kg/injection, schedule: Q01DX001 (ip), vehicle: carboxymethylcellulose (CMC) 100 % of control

OCCCNc1nc2cc(Br)ccc2c2ccc(Br)cc12
inactive: dose: 100.0 mg/kg/injection, schedule: Q04DX003 (ip), vehicle: Klucel (hydroxypropylcellulose) (HPC) 90 % of control | dose: 200.0 mg/kg/injection, schedule: Q04DX003 (ip), vehicle: Klucel (hydroxypropylcellulose) (HPC) 105 % of control | dose: 400.0 mg/kg/injection, schedule: Q04DX003 (ip), vehicle: Klucel (hydroxypropylcellulose) (HPC) 97 % of control

[Cl][Pt+2][Cl].[NH-]CC(=O)O.[NH-]CC(=O)O
inactive: dose: 9.7 mg/kg/injection, schedule: Q01DX009 (ip), vehicle: saline 86 % of control | dose: 19.4 mg/kg/injection, schedule: Q01DX001 (ip), vehicle: saline 100 % of control | dose: 19.4 mg/kg/injection, schedule: Q01DX009 (ip), vehicle: saline 89 % of control | dose: 38.8 mg/kg/injection, schedule: Q01DX001 (ip), vehicle: saline 105 % of control | dose: 38.8 mg/kg/injection, schedule: Q01DX009 (ip), vehicle: saline 95 % of control | dose: 77.5 mg/kg/injection, schedule: Q01DX001 (ip), vehicle: saline 109 % of control | dose: 77.5 mg/kg/injection, schedule: Q01DX009 (ip), vehicle: saline 100 % of control | dose: 155.0 mg/kg/injection, schedule: Q01DX001 (ip), vehicle: saline 98 % of control

CC(C)Sc1nn2nnnc2c2ccccc12
inactive: dose: 50.0 mg/kg/injection, schedule: Q04DX003 (ip), vehicle: saline 94 % of control | [11] 97 % of control | [12] 103 % of control

CCCCNC(=O)OCc1cnc(C)n1Cc1ccccc1
inactive: dose: 25.0 mg/kg/injection, schedule: Q01DX009 (ip), vehicle: other 93 % of control and 107 % of control | dose: 100.0 mg/kg/injection, schedule: Q01DX001 (ip), vehicle: carboxymethylcellulose (CMC) 104 % of control | [13] 94 % of control | dose: 100.0 mg/kg/injection, schedule: Q04DX002 (ip), vehicle: other 96 % of control and 105 % of control | dose: 200.0 mg/kg/injection, schedule: Q01DX001 (ip), vehicle: carboxymethylcellulose (CMC) 108 % of control | [14] 98 % of control | dose: 200.0 mg/kg/injection, schedule: Q04DX002 (ip), vehicle: other 93 % of control and 86 % of control | [15] 94 % of control

COc1ccc(Cc2cc3cc(OC)c(OC)cc3cn2)cc1OC
inactive: [5] 103 % of control | [6] 93 % of control | [7] 105 % of control | [8] 104 % of control | [9] 121 % of control | [10] 90 % of control

O=c1[nH]c(=O)[nH]c(=S)[nH]1
inactive: dose: 100.0 mg/kg/injection, schedule: Q01DX Z (ip), vehicle: methylcellulose (MC) 98 % of control | dose: 200.0 mg/kg/injection, schedule: Q01DX Z (ip), vehicle: methylcellulose (MC) 87 % of control

O=CN1CCCCC1
inactive: [2] 97 % of control | [3] 105 % of control

COC(=O)CCCN1C(=O)c2ccccc2C1=O
inactive: dose: 100.0 mg/kg/injection, schedule: Q04DX002 (ip), vehicle: carboxymethylcellulose (CMC) 102 % of control and 87 % of control | dose: 100.0 mg/kg/injection, schedule: Q04DX003 (ip), vehicle: carboxymethylcellulose (CMC) 94 % of control | dose: 200.0 mg/kg/injection, schedule: Q04DX002 (ip), vehicle: carboxymethylcellulose (CMC) 97 % of control and 91 % of control | dose: 200.0 mg/kg/injection, schedule: Q04DX003 (ip), vehicle: carboxymethylcellulose (CMC) 92 % of control | dose: 400.0 mg/kg/injection, schedule: Q04DX002 (ip), vehicle: carboxymethylcellulose (CMC) 93 % of control and 90 % of control | dose: 400.0 mg/kg/injection, schedule: Q04DX003 (ip), vehicle: carboxymethylcellulose (CMC) 99 % of control

Nc1cnccc1NCCN1CCN(c2ccccc2)CC1
inactive: [2] 98 % of control

CCc1ccccc1NC(=O)Nc1ccccc1C(N)=O
inactive: [16] 87 % of control | [17] 93 % of control | [18] 93 % of control

Oc1c(Cl)cc(Cl)c(Cl)c1Cc1c(O)c(Cl)cc(Cl)c1Cl
inactive: dose: 12.5 mg/kg/injection, schedule: Q04DX003 (ip), vehicle: Klucel (hydroxypropylcellulose) (HPC) 109 % of control | dose: 25.0 mg/kg/injection, schedule: Q04DX003 (ip), vehicle: Klucel (hydroxypropylcellulose) (HPC) 100 % of control | dose: 50.0 mg/kg/injection, schedule: Q04DX003 (ip), vehicle: Klucel (hydroxypropylcellulose) (HPC) 98 % of control

O=C(O)c1cccc2c1C(=O)c1c(O)cccc1C2=O
inactive: dose: 50.0 mg/kg/injection, schedule: Q04DX002 (ip), vehicle: Klucel (hydroxypropylcellulose) (HPC) 105 % of control | [13] 96 % of control | [14] 92 % of control

O=C(Nc1ccccc1)c1ccccc1C(O)(c1ccccc1)c1ccc(Cl)cc1 (configuration not stated)
inactive: [5] 92 % of control | [7] 90 % of control | [9] 93 % of control

CC(C)C(CN)(CCCN1CCOCC1)c1cccc2ccccc12 (configuration not stated)
inactive: [5] 94 % of control | [7] 89 % of control

Cc1cc(N=Cc2ccc(Cl)cc2)c(N=Cc2ccc(Cl)cc2)cc1C
inactive: dose: 100.0 mg/kg/injection, schedule: Q01DX005 (ip), vehicle: Klucel (hydroxypropylcellulose) (HPC) 99 % of control | [16] 108 % of control | [13] 95 % of control | dose: 200.0 mg/kg/injection, schedule: Q01DX005 (ip), vehicle: Klucel (hydroxypropylcellulose) (HPC) 96 % of control | [17] 115 % of control | [14] 95 % of control | dose: 400.0 mg/kg/injection, schedule: Q01DX005 (ip), vehicle: Klucel (hydroxypropylcellulose) (HPC) 92 % of control | [18] 97 % of control | [15] 95 % of control

Cc1ccc(C)c(NC(=O)Oc2ccc(-c3ccccc3)cc2)c1
inactive: dose: 100.0 mg/kg/injection, schedule: Q01DX009 (ip), vehicle: saline 96 % of control | [11] 109 % of control | dose: 200.0 mg/kg/injection, schedule: Q01DX009 (ip), vehicle: saline 95 % of control | [12] 110 % of control | dose: 400.0 mg/kg/injection, schedule: Q01DX009 (ip), vehicle: saline 95 % of control | dose: 400.0 mg/kg/injection, schedule: Q04DX003 (ip), vehicle: saline 101 % of control

COc1ccc(CN2CCCN(Cc3ccc(OC)cc3OC)C2c2cccc(OC)c2O)c(OC)c1
inactive: [1] 95 % of control | [2] 92 % of control | [3] 92 % of control | [4] 95 % of control

— PubChem BioAssay AID248 (DTP/NCI, 2004)
